Reference: patent US12103924B2, “Mitogen-activated protein kinase kinase (MEK) degradation compounds and methods of use” (Icahn School of Medicine at Mount Sinai, priority 2020, dated 2024)

Tests used:
[1] = tested on: HT-29 cells; assay: MTT cell viability assay, HT-29; format: cell-based; details: Homo sapiens, 72 h, MTT assay, 3 d treatment, serial dilutions
Description: MTT assay was conducted for HT-29 cells after 3 d treatment with indicated compounds with serial dilutions.
MTT assay was conducted for HT-29 (A) and SK-MEL-28 (B) cells after 3 d treatment with DMSO or indicated compounds with serial dilutions. Clonogenic assay was performed in HT-29 (C) and SK-MEL-28 (D) cells for 14 d treatment with DMSO or indicated compounds with 10, 30 and 100 nM, in duplicate, respectively. Cells were then stained by crystal violet.
Cells (2000 cells per well) were seeded into 96-well microplates. After 20 h, cells were treated with 0.1% DMSO or indicated serial dilutions of compounds in duplicate or triplicate for 3 days. Cell viability was tested using MTT (M6494, Thermo Fisher Scientific) or WST-8 reagent (CK04, Dojindo). Briefly, 12 mM MTT was prepared in PBS or WST-8 reagent was warmed up to room temperature. 20 μL MTT or CCK-8 was then added to each well and the plates were kept in incubator at 37° C. for 3 h in the dark. For the WST-8 assay, signal was obtained after the incubation. For the MTT assay, cell medium was replaced with 200 μL of DMSO after the incubation, and then cell plates were kept at 37° C. for another 30 min. Absorbance signals for MTT and WST-8 were read at 540 nm and 450 nm respectively, with 690 nm as reference performed with Infinite F PLEX plate reader (TECAN, Morrisville, NC, USA). GI50 values were analyzed using GraphPad Prism 8 from the data of at least three independent experiments.
HT-29 or SK-MEL-28 cells (300 cells per well) were seeded in 12-well plates. After 20 h, cells were treated with DMSO or indicated concentrations of compounds in duplicate for two weeks. Medium containing indicated compounds was changed every 3 days. Cells were then fixed and stained with the solution containing 6% (v/v) glutaraldehyde (G5882, Sigma-Aldrich) and 0.5% (w/v) crystal violet for 1 h. To remove the background color, the plates with stained cells were immersed in running water until clear colonies were observed. The plates were dried at RT. The staining images were obtained with Epson Perfection V600 Photo.

[2] = tested on: MEK1/2; assay: Western blot of MEK1/2 protein levels in HT-29 cells; format: cell-based; details: 24 h
Description: Compound concentrations are 0.3 μM, 1 μM and 3 μM.
The indicated protein levels were determined by Western blots.
The sample was centrifuged at 12,000 g for 10 min at 4° C. to get supernatant as cell lysate. Protein concentrations were quantified using Pierce rapid gold BCA protein assay kit.

[3] = HT-29 cells, 0.3 μM, 1 μM and 3 μM, western blot normalized with α-tubulin

SMILES	GI50 [1] [µM]	MEK1 and MEK2 protein levels [2, 3]	MEK1 and MEK2 protein levels ([2]; HT-29 cells, 0.1, 0.3, or 1 μM)
Cc1ncsc1-c1ccc(CNC(=O)[C@@H]2C[C@@H](O)CN2C(=O)[C@@H](NC(=O)CCCCCCNCCCONC(=O)c2ccc(F)c(F)c2Nc2ccc(I)cc2F)C(C)(C)C)cc1 [CPD-001, (2S,4R)-1-((S)-16-(tert-Butyl)-1-(3,4-difluoro-2-((2-fluoro-4-iodophenyl)amino)phenyl)-1,14-dioxo-3-oxa-2,7,15-triazaheptadecan-17-oyl)-4-hydroxy-N-(4-(4-methylthiazol-5-yl)benzyl)pyrrolidine-2-carboxamide]	1.4 ± 0.2	reduced	–
Cc1ncsc1-c1ccc(CNC(=O)[C@@H]2C[C@@H](O)CN2C(=O)[C@@H](NC(=O)CCCCCCCCCCNCCCONC(=O)c2ccc(F)c(F)c2Nc2ccc(I)cc2F)C(C)(C)C)cc1 [CPD-014, (2S,4R)-1-((S)-20-(tert-butyl)-1-(3,4-difluoro-2-((2-fluoro-4-iodophenyl)amino)phenyl)-1,18-dioxo-3-oxa-2,7,19-triazahenicosan-21-oyl)-4-hydroxy-N-(4-(4-methylthiazol-5-yl)benzyl)pyrrolidine-2-carboxamide]	0.4 ± 0.2	reduced	–
Cc1ncsc1-c1ccc(CNC(=O)[C@@H]2C[C@@H](O)CN2C(=O)[C@@H](NC(=O)COCCOCCOCCNCCCONC(=O)c2ccc(F)c(F)c2Nc2ccc(I)cc2F)C(C)(C)C)cc1 [CPD-015, (2S,4R)-1-((S)-20-(tert-butyl)-1-(3,4-difluoro-2-((2-fluoro-4-iodophenyl)amino)phenyl)-1,18-dioxo-3,10,13,16-tetraoxa-2,7,19-triazahenicosan-21-oyl)-4-hydroxy-N-(4-(4-methylthiazol-5-yl)benzyl)pyrrolidine-2-carboxamide]	1.3 ± 0.1	reduced	–
O=C1CCC(N2C(=O)c3cccc(NCCNCCCONC(=O)c4ccc(F)c(F)c4Nc4ccc(I)cc4F)c3C2=O)C(=O)N1 (centres unmarked) [CPD-024, N-(3-((2-((2-(2,6-dioxopiperidin-3-yl)-1,3-dioxoisoindolin-4-yl)amino)ethyl)amino)propoxy)-3,4-difluoro-2-((2-fluoro-4-iodophenyl)amino)benzamide]	0.4 ± 0.01	not	–
O=C1CCC(N2C(=O)c3cccc(NCCCCCCCNCCCONC(=O)c4ccc(F)c(F)c4Nc4ccc(I)cc4F)c3C2=O)C(=O)N1 (centres unmarked) [CPD-029, N-(3-((7-((2-(2,6-dioxopiperidin-3-yl)-1,3-dioxoisoindolin-4-yl)amino)heptyl)amino)propoxy)-3,4-difluoro-2-((2-fluoro-4-iodophenyl)amino)benzamide]	4.5 ± 1.9	–	–
O=C1CCC(N2C(=O)c3cccc(NCCCCCCCCNCCCONC(=O)c4ccc(F)c(F)c4Nc4ccc(I)cc4F)c3C2=O)C(=O)N1 (centres unmarked) [CPD-030, N-(3-((8-((2-(2,6-dioxopiperidin-3-yl)-1,3-dioxoisoindolin-4-yl)amino)octyl)amino)propoxy)-3,4-difluoro-2-((2-fluoro-4-iodophenyl)amino)benzamide]	3.5 ± 0.9	–	–
Cc1ncsc1-c1ccc([C@H](C)NC(=O)[C@@H]2C[C@@H](O)CN2C(=O)[C@@H](NC(=O)CCCCCCCCCCCNCCCONC(=O)c2ccc(F)c(F)c2Nc2ccc(I)cc2F)C(C)(C)C)cc1 [CPD-033, (2S,4R)-1-((S)-21-(tert-butyl)-1-(3,4-difluoro-2-((2-fluoro-4-iodophenyl)amino)phenyl)-1,19-dioxo-3-oxa-2,7,20-triazadocosan-22-oyl)-4-hydroxy-N—((S)-1-(4-(4-methylthiazol-5-yl)phenyl)ethyl)pyrrolidine-2-carboxamide]	0.099 ± 0.008	–	–
Cc1ncsc1-c1ccc([C@H](C)NC(=O)[C@@H]2C[C@@H](O)CN2C(=O)[C@@H](NC(=O)CCCCCCCCCNCCCCONC(=O)c2ccc(F)c(F)c2Nc2ccc(I)cc2F)C(C)(C)C)cc1 [CPD-035, (2S,4R)-1-((S)-20-(tert-butyl)-1-(3,4-difluoro-2-((2-fluoro-4-iodophenyl)amino)phenyl)-1,18-dioxo-3-oxa-2,8,19-triazahenicosan-21-oyl)-4-hydroxy-N—((S)-1-(4-(4-methylthiazol-5-yl)phenyl)ethyl)pyrrolidine-2-carboxamide]	0.055 ± 0.005	–	–
Cc1ncsc1-c1ccc([C@H](C)NC(=O)[C@@H]2C[C@@H](O)CN2C(=O)[C@@H](NC(=O)CCCCCCCCCNCCCONC(=O)c2ccc(F)c(F)c2Nc2ccc(I)cc2F)C(C)(C)C)cc1 [CPD-036, (2S,4R)-1-((S)-19-(tert-butyl)-1-(3,4-difluoro-2-((2-fluoro-4-iodophenyl)amino)phenyl)-1,17-dioxo-3-oxa-2,7,18-triazaicosan-20-oyl)-4-hydroxy-N—((S)-1-(4-(4-methylthiazol-5-yl)phenyl)ethyl)pyrrolidine-2-carboxamide]	0.24 ± 0.055	–	–
Cc1ncsc1-c1ccc([C@H](C)NC(=O)[C@@H]2C[C@@H](O)CN2C(=O)[C@@H](NC(=O)CCCCCCCCCCNCCCCONC(=O)c2ccc(F)c(F)c2Nc2ccc(I)cc2F)C(C)(C)C)cc1 [CPD-039, (2S,4R)-1-((S)-21-(tert-butyl)-1-(3,4-difluoro-2-((2-fluoro-4-iodophenyl)amino)phenyl)-1,19-dioxo-3-oxa-2,8,20-triazadocosan-22-oyl)-4-hydroxy-N—((S)-1-(4-(4-methylthiazol-5-yl)phenyl)ethyl)pyrrolidine-2-carboxamide]	0.043 ± 0.001	–	–
O=C1CCC(N2C(=O)c3ccc(NCCCCCNCCCONC(=O)c4ccc(F)c(F)c4Nc4ccc(I)cc4F)cc3C2=O)C(=O)N1 (centres unmarked) [CPD-043, N-(3-((5-((2-(2,6-dioxopiperidin-3-yl)-1,3-dioxoisoindolin-5-yl)amino)pentyl)amino)propoxy)-3,4-difluoro-2-((2-fluoro-4-iodophenyl)amino)benzamide]	0.5 ± 0.1	significantly degraded	–
O=C1CCC(N2C(=O)c3ccc(NCCCCCCCNCCCONC(=O)c4ccc(F)c(F)c4Nc4ccc(I)cc4F)cc3C2=O)C(=O)N1 (centres unmarked) [CPD-045, N-(3-((7-((2-(2,6-dioxopiperidin-3-yl)-1,3-dioxoisoindolin-5-yl)amino)heptyl)amino)propoxy)-3,4-difluoro-2-((2-fluoro-4-iodophenyl)amino)benzamide]	0.5 ± 0.2	significantly degraded	–
O=C1CCC(N2C(=O)c3ccc(NCCCCCCCCNCCCONC(=O)c4ccc(F)c(F)c4Nc4ccc(I)cc4F)cc3C2=O)C(=O)N1 (centres unmarked) [CPD-046, N-(3-((8-((2-(2,6-dioxopiperidin-3-yl)-1,3-dioxoisoindolin-5-yl)amino)octyl)amino)propoxy)-3,4-difluoro-2-((2-fluoro-4-iodophenyl)amino)benzamide]	0.3 ± 0.1	significantly degraded	–
O=C1CCC(N2C(=O)c3ccc(NCCOCCOCCNCCCONC(=O)c4ccc(F)c(F)c4Nc4ccc(I)cc4F)cc3C2=O)C(=O)N1 (centres unmarked) [CPD-048, N-(3-((2-(2-(2-((2-(2,6-dioxopiperidin-3-yl)-1,3-dioxoisoindolin-5-yl)amino)ethoxy)ethoxy)ethyl)amino)propoxy)-3,4-difluoro-2-((2-fluoro-4-iodophenyl)amino)benzamide]	1.1 ± 0.3	–	–
O=C(NOC[C@H](O)CO)c1ccc(F)c(F)c1Nc1ccc(I)cc1F [PD0325901, reference compound]	–	–	not

Continued by falling GI50 [1], values first:

GI50 [1] [µM]	SMILES	MEK1 and MEK2 protein levels [2, 3]	MEK1 and MEK2 protein levels ([2]; HT-29 cells, 0.1, 0.3, or 1 μM)
1.5 ± 0.5	O=C1CCC(N2C(=O)c3ccc(NCCOCCOCCOCCNCCCONC(=O)c4ccc(F)c(F)c4Nc4ccc(I)cc4F)cc3C2=O)C(=O)N1 (centres unmarked) [CPD-049, N-((1-((2-(2,6-dioxopiperidin-3-yl)-1,3-dioxoisoindolin-5-yl)amino)-3,6,9-trioxa-12-azapentadecan-15-yl)oxy)-3,4-difluoro-2-((2-fluoro-4-iodophenyl)amino)benzamide]	–	–
1.4 ± 0.7	O=C1CCC(N2C(=O)c3ccc(NCCOCCNCCCONC(=O)c4ccc(F)c(F)c4Nc4ccc(I)cc4F)cc3C2=O)C(=O)N1 (centres unmarked) [CPD-047, N-(3-((2-(2-((2-(2,6-dioxopiperidin-3-yl)-1,3-dioxoisoindolin-5-yl)amino)ethoxy)ethyl)amino)propoxy)-3,4-difluoro-2-((2-fluoro-4-iodophenyl)amino)benzamide]	–	–
1.2 ± 0.2	O=C1CCC(N2C(=O)c3cccc(NCCOCCNCCCONC(=O)c4ccc(F)c(F)c4Nc4ccc(I)cc4F)c3C2=O)C(=O)N1 (centres unmarked) [CPD-019, N-(3-((2-(2-((2-(2,6-dioxopiperidin-3-yl)-1,3-dioxoisoindolin-4-yl)amino)ethoxy)ethyl)amino)propoxy)-3,4-difluoro-2-((2-fluoro-4-iodophenyl)amino)benzamide]	not	–
1.1 ± 0.5	O=C1CCC(N2C(=O)c3ccc(NCCCCCCNCCCONC(=O)c4ccc(F)c(F)c4Nc4ccc(I)cc4F)cc3C2=O)C(=O)N1 (centres unmarked) [CPD-044, N-(3-((6-((2-(2,6-dioxopiperidin-3-yl)-1,3-dioxoisoindolin-5-yl)amino)hexyl)amino)propoxy)-3,4-difluoro-2-((2-fluoro-4-iodophenyl)amino)benzamide]	–	–
1 ± 0.4	O=C1CCC(N2C(=O)c3ccc(NCCCCNCCCONC(=O)c4ccc(F)c(F)c4Nc4ccc(I)cc4F)cc3C2=O)C(=O)N1 (centres unmarked) [CPD-042, N-(3-((4-((2-(2,6-dioxopiperidin-3-yl)-1,3-dioxoisoindolin-5-yl)amino)butyl)amino)propoxy)-3,4-difluoro-2-((2-fluoro-4-iodophenyl)amino)benzamide]	–	–
0.5 ± 0.2	O=C1CCC(N2C(=O)c3ccc(NCCCNCCCONC(=O)c4ccc(F)c(F)c4Nc4ccc(I)cc4F)cc3C2=O)C(=O)N1 (centres unmarked) [CPD-041, N-(3-((3-((2-(2,6-dioxopiperidin-3-yl)-1,3-dioxoisoindolin-5-yl)amino)propyl)amino)propoxy)-3,4-difluoro-2-((2-fluoro-4-iodophenyl)amino)benzamide]	not	–
0.5 ± 0.06	O=C1CCC(N2C(=O)c3ccc(NCCOCCOCCOCCOCCNCCCONC(=O)c4ccc(F)c(F)c4Nc4ccc(I)cc4F)cc3C2=O)C(=O)N1 (centres unmarked) [CPD-050, N-((1-((2-(2,6-dioxopiperidin-3-yl)-1,3-dioxoisoindolin-5-yl)amino)-3,6,9,12-tetraoxa-15-azaoctadecan-18-yl)oxy)-3,4-difluoro-2-((2-fluoro-4-iodophenyl)amino)benzamide]	significantly degraded	–
